Marks after values point to notes of the source that are not given here.
Tests used:
B. subtilis = assay: Cell-binding assay by flow cytometry; parameters: species or system Bacillus subtilis
Experimental: (§1) The binding affinity and avidity of pediocin to various Gram-positive and Gram-negative bacteria were studied using flow cytometry. Late log-phase cells were washed in the sodium phosphate buffer (5 mM, pH 6.0) and resuspended at an OD600 of 10^–3 in sodium-acetate buffer (25 mM, pH 4.0), sodium phosphate buffer (5 mM, pH 6.0) or sodium phosphate buffer (5mM, pH 7.4) containing 1 % BSA (bovine serum albumin) and 100 mM NaCl. Cells were incubated with varying concentrations of the conjugated peptide at 4 °C for 30 min. The unbound peptide was removed by centrifugation, and the pellet was resuspended in their respective binding containing 1 % BSA. Flow cytometry was performed on an Attune NxT flow cytometer (Life Technologies/ThermoFisher Scientific, Carlsbad, CA). Data (≥10^4 events were recorded) was recorded using a […] (488 nm) voltage of 360 V, gating was performed on SSC-A versus SSC-H plot to reduce false events.

L. seeligeri = format: cell-based, Listeria seeligeri; settings: Figure 1C; start OD600 0.05, 96-well plate, growth at 600 nm after 24 h; 3 pM to 3 μM, 10-fold serial dilutions; read-out: EC50 (kill-curve)
Experimental: (§2) To determine the potency of the purified pediocin PA-1, we generated kill-curves against a range of target bacteria (Figure 1B). The concentration range tested was 3 pM to 3 μM following 10-fold serial dilutions. […] This is in approximate agreement with the published potency of pediocin PA-1 [28] . Though the molecular mass of pediocin PA-1 is expected to be 4.5 kDa, we observed the partially purified peptide to migrate with an apparent mass of ~12.5 kDa (Figure 1B). However, subsequent analysis by LC-MS yielded peaks of multiple m/z with the predominant peak at the expected molecular size of 4.6 kDa (Figure S4). The purified pediocin PA-1, separated on denaturing but non-reducing SDS-PAGE (since this bacteriocin contains two crucial disulfide bonds), was subjected to agar-overlay assay using L. seeligeri as indicator organism (Figure S5).
(§3) The antimicrobial spectrum of pediocin PA-1 was assayed using a kill curve. Cultures grown overnight were resuspended in fresh medium at an OD600 of 0.05. EC50 was determined by incubating cells with varying concentrations of pediocin in a 96-well plate, and growth was measured at 600 nm after 24 h.
Figure S7. Growth inhibition of L. seeligeri by modified and unmodified pediocin PA-1.

L. coryniformis [1] = assay: Kill curve (growth at 600 nm after 24 h); format: cell-based, Lactobacillus coryniformis; settings: Figure 1C, start OD600 0.05, 96-well plate, 3 pM to 3 μM, 10-fold serial dilutions
Experimental: as §2, §3

[2] = format: physicochemical
Text: We then proceeded to clone the pediocin operon from P. acidilactici UL5 into pSIP-P27 vector for heterologous expression in other lactic acid bacteria viz. Lactiplantibacillus plantarum WCFS1, Lactococcus cremoris MG1363 and the well-established expression host, E. coli MG1655. The pediocin operon imparted anti-listerial activity to the L. plantarum culture supernatant but not to that of L. cremoris or E. coli (Figure 1A). Based on the degree of bioactivity, we concluded that the level of recombinant pediocin PA-1 accumulated in L. plantarum culture was […] that observed for P. acidilactici UL5 and was therefore not pursued further. Thus, for subsequent studies, we isolated pediocin PA-1 from P. acidilactici UL5 directly using the cell adsorption-desorption approach (Figure S2). […] We attempted to further purify the preparation using reverse phase HPLC with minimal enhancement in purity but a significant loss in yield (Figure S3). The peptide recovered after cell adsorption-desorption and dialysis was lyophilized for long-term storage to minimize any loss in activity. The peptide using this method was purified 189-fold with specific activity of 9,434 AU·mg^−1 as measured by agar-well diffusion method (Figure 1B, Figure S2A–C).

E. coli = assay: Cell-binding assay by flow cytometry; settings: Table S1
Experimental: as §1

indicator strains = assay: Agar-well diffusion assay, specific activity of the purified peptide; format: cell-based; settings: agar-well diffusion method; peptide after cell adsorption-desorption and dialysis, purified 189-fold
Experimental: Pediocin PA-1 is known to display narrow-spectrum activity against only a few species that include Lactobacillus coryniformis B-4390 and various Listeria species. We re-tested the antimicrobial spectrum of the pediocin PA-1 producer strain, Pediococcus acidilactici UL5, using agar-well diffusion assays against a few representative members of lactic acid bacteria (LAB) and Gram-negative, E. coli DH5α as a control (Figure S1). The effectiveness of the spent cell-free culture medium was evaluated by its ability to inhibit growth of the indicator strains as measured by zone of inhibition (ZOI). […] Therefore, we conclude that the primary antimicrobial secreted by P. acidilactici UL5 was pediocin PA-1.
We then proceeded to clone the pediocin operon from P. acidilactici UL5 into pSIP-P27 vector for heterologous expression in other lactic acid bacteria viz. Lactiplantibacillus plantarum WCFS1, Lactococcus cremoris MG1363 and the well-established expression host, E. coli MG1655. The pediocin operon imparted anti-listerial activity to the L. plantarum culture supernatant but not to that of L. cremoris or E. coli (Figure 1A). […] The peptide using this method was purified 189-fold with specific activity of 9,434 AU·mg^−1 as measured by agar-well diffusion method (Figure 1B, Figure S2A–C). […]

L. casei = assay: Cell-binding assay by flow cytometry; parameters: species or system Lacticaseibacillus casei; settings: Table S1
Experimental: as §1

L. cremoris = assay: Cell-binding assay by flow cytometry; parameters: species or system Lactococcus cremoris; settings: Table S1, organism printed as L. lactis
Experimental: as §1

L. coryniformis [3] = assay: Cell-binding assay by flow cytometry; parameters: species or system Lactobacillus coryniformis
Experimental: as §1

[4] = Table S1, maximum mean fluorescence intensity
[5] = flow cytometry, Atto488 conjugate up to 2 μM, 4 °C 30 min, 1 % BSA, 100 mM NaCl, Hill fit, read-out: Apparent KD
[6] = signal did not saturate, read-out: Apparent KD

For “biosynthetic pediocin PA-1: class IIa bacteriocin partially purified from P. acidilactici UL5 by cell adsorption-desorption (KYYGNGVTCGKHSCSVDWGKATTCIINNGAMAWATGGHQGNHKC; UniProt P29430 19-62, looked up)”, the Hill co-efficient (B. subtilis; Table S1, Hill fit) was 0.9, the “MFImax (×10^3)” value (B. subtilis; [4]) was 7 ± 1 ×10^3 and the Kd (B. subtilis; [5]) was 467 ± 167 nM. The EC50 (L. seeligeri) was ~13.3 nM, the EC50 (L. coryniformis [1]) was ~1 nM and the “stability of recovered peptide (in words)” value [2] was “the peptide recovered at the acidic pH was found to be more stable”. For the same substance, the Hill co-efficient (E. coli) was 0.9, the Kd (E. coli; [6]) was > 2000 nM and the specific activity (indicator strains) was 9,434 AU·mg^−1. For the same substance, the Hill co-efficient (L. casei) was 0.7, the “MFImax (×10^3)” value (L. casei; signal did not saturate) was >2* ×10^3 and the Kd (L. casei; [6]) was > 2000 nM. The Hill co-efficient (L. cremoris) was 0.7, the Kd (L. cremoris; [6]) was > 2000 nM and the Hill co-efficient (L. coryniformis [3]; Table S1, fit MFI = MFImax[S]^n/(KD^n+[S]^n)) was 1.4. The “MFImax (×10^3)” value (L. coryniformis [3]; [4]) was 6.3 ± 0.3 ×10^3 and the Kd (L. coryniformis [3]; [5]) was 46 ± 8 nM.
